# Test results reported in patent publication US20070021501A1, “Methods of treating epileptogenesis” (priority 2005, published 2007).
# Columns and labels:
# [1] = system: lithium-pilocarpine model of temporal lobe epilepsy in the rat; assay: Quantification of cell densities (neuronal counting) 14 days after Li-pilo SE (Example 2); conditions: 14 days after SE; for cell loss: hippocampus CA1 pyramidal cell layer
# Protocol: All rats received lithium chloride (3 meq/kg, i.p., Sigma, St Louis, Mo., U.S.A.) and about 20 h later, all animals received also methylscopolamine bromide (1 mg/kg, s.c., Sigma) that was administered to limit the peripheral effects of the convulsant. […] The effects of increasing doses of TC were studied in 5 groups of rats. […] The control group received vehicle instead of pilocarpine and TC.
# For neuronal counting, animals were deeply anesthetized with 1.8 g/kg pentobarbital (Dolethal®, Vétoquinol, Lure, France). Brains were then removed and frozen. Serial 20 μm slices were cut in a cryostat, air-dried during several days before thionine staining. […] The grid of counting was placed on a well defined area of the cerebral structure of interest and counting was carried out with a microscopic enlargement of 200- or 400-fold defined for each single cerebral structure. Cell counts were performed twice on each side of three adjacent sections for each region by a single observer unaware of the animal's treatment. The number of cells obtained in the 12 counted fields in each cerebral structure was averaged. This procedure was used to minimize the potential errors that could result from double counting leading to overestimation of cell numbers. […] Counts involved only neurons with cell bodies larger than 10 μm. Cells with small cell bodies were considered as glial cells and were not counted.
# For neuronal damage and epileptogenesis, statistical analysis between groups was performed by means of a one-way analysis of variance followed by a post-hoc Dunnett or Fisher test using the Statistica software.
# [2] = system: lithium-pilocarpine status epilepticus in the rat; assay: EEG patterns during and after Li-pilo SE (Example 1); format: in vivo
# Protocol: (§1) Male Wistar rats weighing 225-250 g, provided by Janvier Breeding Center (Le Genest-St-lste, France) were housed under controlled standard conditions (light/dark cycle, 7.00 a.m.-7.00 p.m. lights on), with food and water available ad libitum. All animal experimentation was performed in accordance with the rules of the European Communities Council Directive of Nov. 24, 1986 (86/609/EEC), and the French Department of Agriculture (License N^o 67-97). For electrode implantation, rats were anesthetized by an i.p. injection of 2.5 mg/kg diazepam (DZP, Valium, Roche, France) and […] ketamine chlorhydrate (Imalgene 1000, Rhone Merrieux, France). Four single-contact recording electrodes were placed on the skull, over the parietal cortex, two on each side.
# (§2) The bilateral EEG cortical activity was recorded during the whole duration of SE and behavioral changes were noted.
# The effects of the test compound on the EEG and on the latency to occurrence of SRS were investigated by daily video recording of the animals for 10 h per day and the recording of the electrographic activity twice a week for 8 h.
# [3] = system: lithium-pilocarpine status epilepticus in the rat; assay: Mortality over the first 48 h after Li-pilo SE (Example 2); format: in vivo, Sprague-Dawley rats
# Protocol: Adult male Sprague-Dawley rats provided by Janvier Breeding Center (Le Genest-St-lsle, France) were housed under controlled, uncrowded standard conditions at 20-22° C. (light/dark cycle, 7.00 a.m.-7.00 p.m. lights on), with food and water available ad libitum. All animal experimentation was performed in accordance with the rules of the European Communities Council Directive of Nov. 24, 1986 (86/609/EEC), and the French Department of Agriculture (License N^o 67-97).
# [4] = system: lithium-pilocarpine model of temporal lobe epilepsy in the rat; assay: Latency to and frequency of spontaneous seizures, video recording (Example 2); format: in vivo, Sprague-Dawley rats
# Protocol: The effects of DZP and the 4 doses of TC on epileptogenesis were investigated by daily video recording of the animals for 10 h per day. Video recording was performed for 4 weeks during which the occurrence of the first seizure was noted as well as the total number of seizures over the whole period. Animals were then taken off the video recording system and kept for 4 additional weeks in our animal facilities before they were sacrificed after a total period of 8 weeks of epilepsy.
# [5] = system: lithium-pilocarpine model of temporal lobe epilepsy in the rat; assay: Quantification of cell densities in hippocampus, thalamus and cortex after Li-pilo SE (Example 1); format: in vivo; conditions: for more damage (worsening of cell loss) compared with pilo-DZP rats: TC 10 mg/kg
# Protocol: Quantification of cell densities was performed at 6 days after SE on 8 pilo-DZP, 8 pilo-TC10, 7 pilo-TC30, 7 pilo-TC60, and 6 saline-saline rats.
# Cell counts were performed twice in a blind manner and were the average of at least 3 values from 2 adjacent sections in each individual animal. Counts involved only cells larger than 10 μm, smaller ones being considered as glial cells.
# For the comparison of the characteristics of SE in pilo-saline and pilo-test compound animals, a non-paired Student's t-test was used. The comparison between the number of rats seizing in both groups was performed by means of a Chi square test. For neuronal damage, statistical analysis between groups was performed using ANOVA followed by a Fisher's test for multiple comparisons using the Statview software (Fisher R A, 1946a, Statistical Methods for Research Workers (10th edition) Oliver & Boyd, Edinburgh; Fisher R A, 1946b, The Design of Experiments (4th edition) Oliver & Boyd, Edinburgh) Behavioral and EEG Characteristics of Lithium-pilocarpine Status Epilepticus
# [6] = system: lithium-pilocarpine status epilepticus in the rat; assay: Mortality induced by SE, lithium-pilocarpine model (Example 1); format: in vivo
# From the text: The model induced in rats by pilocarpine associated with lithium (Li-Pilo) reproduces most of the clinical and neurophysiological features of human temporal lobe epilepsy (Turski et al., 1989, Synapse 3:154-171; Cavalheiro, 1995, Ital J Neurol Sci 16:33-37). In adult rats, the systemic administration of pilocarpine leads to status epilepticus (SE). The lethality rate reaches 30-50% during the first days. In the surviving animals, neuronal damage predominates within the hippocampal formation, the piriform and entorhinal cortices, thalamus, amygdaloid complex, neocortex and substantia nigra.
# as §1, §2
# The effects of increasing doses of the test compound were studied on 3 groups of rats. The animals of the first group received 10 mg/kg of the test compound, i.p., 1 h after the onset of SE (pilo-TC10) while the animals of groups 2 and 3 received 30 and 60 mg/kg of the test compound (pilo-TC30 and pilo-TC60), respectively.
# The control group received saline instead of pilocarpine and the test compound (saline-saline). […] Pilo-DZP received a second injection of 1 mg/kg DZP on the day of SE at about 10 h after the first one. Thereafter, Pilo-DZP and saline-saline rats received twice daily an equivalent volume of saline.
compound,measurement,setting,value
NC(=O)OC[C@@H](O)c1ccccc1Cl [TC],neurons surviving,"[1]; TC 120 mg/kg, all parts of the entorhinal cortex (range)",85-94%
same,neuronal loss,"[1]; TC 120 mg/kg, hilus of dentate gyrus",53%
same,cell loss,[1]; TC 120 mg/kg,12%
same,neuronal drop out,"[1]; TC 120 mg/kg, thalamic nuclei (range)",4-19%
same,cell loss (drop out),"[1]; TC30, 60 and 90 groups (range printed together with DZP group), hilus of dentate gyrus",61-66%
same,cell loss,"[1]; TC30, 60 or 90 rats (range over groups)",36-47%
same,EEG after injection at 24 and 48 h after SE (silent period),"[2]; TC 10 mg/kg, between 1 and 8 h after injection",no change
same,EEG by 6-7 h of SE,"[2]; TC 10 mg/kg, cortex and hippocampus",spiking activity was still present in the cortex and the hippocampus
same,amplitude of the EEG by 6-7 h of SE,"[2]; TC 30 mg/kg, hippocampus",came back to baseline levels
same,amplitude of the EEG by 6-7 h of SE,"[2]; TC 60 mg/kg, hippocampus and cortex",came back to baseline levels
same,EEG after injection at 24 and 48 h after SE (silent period),"[2]; TC 30 and 60 mg/kg, as soon as 10 min after injection",frequency and amplitude of PEDs decreased
same,mortality over the first 48 h after SE,"[3]; TC 30 mg/kg, group devoted to cell counting at 14 days (4/12)",33%
same,mortality over the first 48 h after SE,"[3]; TC 30 mg/kg, group devoted to latency to SRS and late cell counting (3/11)",27%
same,mortality over the first 48 h after SE,"[3]; TC 60 mg/kg, group devoted to cell counting at 14 days (1/12)",8%
same,mortality over the first 48 h after SE,"[3]; TC 60 mg/kg, group devoted to latency to SRS and late cell counting (0/10)",0%
same,mortality over the first 48 h after SE,"[3]; TC 90 mg/kg, group devoted to cell counting at 14 days (0/10)",0%
same,mortality over the first 48 h after SE,"[3]; TC 90 mg/kg, group devoted to latency to SRS and late cell counting (0/11)",0%
same,mortality over the first 48 h after SE,"[3]; TC 120 mg/kg, group devoted to cell counting at 14 days (4/12)",33%
same,mortality over the first 48 h after SE,"[3]; TC 120 mg/kg, group devoted to latency to SRS and late cell counting (0/9)",0%
same,frequency of spontaneous seizures over the four weeks of recording,[4]; TC 30 mg/kg,tendency to be higher
same,percentage of rats with short latencies to seizures (shorter than 40 days after SE),[4]; TC 90 mg/kg (4/11),36%
same,percentage of non-epileptic rats (no seizure over 150 days post-SE),[4]; TC 120 mg/kg,45%
same,percentage of rats with short latencies to seizures (shorter than 40 days after SE),[4]; TC 120 mg/kg (1/9),11%
same,frequency of spontaneous seizures over the four weeks of recording,"[4]; TC60, 90 and 120 groups",lower
same,more damage (worsening of cell loss) compared with pilo-DZP rats,[5]; dorsal entorhinal cortex layers III-IV,28%
same,more damage (worsening of cell loss) compared with pilo-DZP rats,[5]; ventral entorhinal cortex layers III-IV,35%
same,cell loss,"[5]; TC 30 mg/kg, hippocampus CA1 pyramidal layer",35%
same,cell loss,"[5]; TC 60 mg/kg, hippocampus CA1 pyramidal layer",16%
same,reduction of neuronal damage recorded in the pilo-DZP rats,"[5]; TC 60 mg/kg, piriform cortex layer II",41%
same,reduction of neuronal damage recorded in the pilo-DZP rats,"[5]; TC 60 mg/kg, piriform cortex layers III-IV",44%
same,neuroprotection compared to pilo-DZP rats,"[5]; TC 60 mg/kg, ventral entorhinal cortex layers III-IV",31%
same,cell loss,"[5]; pilo-test compound animals (range over doses), hilus of dentate gyrus",69-72%
same,protection compared to pilo-DZP rats,"[5]; test compound 60 mg/kg, CA3b",significantly neuroprotective
same,protection compared to pilo-DZP rats,"[5]; test compound, CA3a area",did not afford any protection
same,mortality during the first 48 h after SE,[6]; TC 10 mg/kg i.p. 1 h after onset of SE (6/23),26%
same,mortality during the first 48 h after SE,[6]; TC 30 mg/kg i.p. 1 h after onset of SE (5/25),20%
same,mortality during the first 48 h after SE,"[6]; TC 60 mg/kg i.p. 1 h after onset of SE (1/23), p<0.01",4%
